PubChem BioAssay AID328 (DTP/NCI, 2004)
Values joined by “and” are separate entries in the source; they are usually repeats but may differ in a detail not shown here. Equal values may be shown once. Toxic doses and inconclusive results are not listed.

Test system: BDF1 mice, P388 leukemia ip, median survival T/C
Assay: NCI In Vivo Anticancer Drug Screen. Data for tumor model P388 Leukemia (intraperitoneal) in B6D2F1 (BDF1) mice
Details: endpoint: median survival time, higher = longer survival
Method in brief: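 T/C = treated-group survival ÷ vehicle-control survival; tumour transplanted into mice before dosing.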

[1] = dose: 200.0 mg/kg/injection, schedule: Q01DX009 (ip), vehicle: saline with Tween-80
[2] = dose: 100.0 mg/kg/injection, schedule: Q01DX009 (ip), vehicle: saline
[3] = dose: 200.0 mg/kg/injection, schedule: Q01DX009 (ip), vehicle: saline
[4] = dose: 400.0 mg/kg/injection, schedule: Q01DX009 (ip), vehicle: saline
[5] = dose: 100.0 mg/kg/injection, schedule: Q01DX001 (ip), vehicle: saline with Tween-80
[6] = dose: 200.0 mg/kg/injection, schedule: Q01DX001 (ip), vehicle: saline with Tween-80
[7] = dose: 400.0 mg/kg/injection, schedule: Q01DX001 (ip), vehicle: saline with Tween-80
[8] = dose: 50.0 mg/kg/injection, schedule: Q01DX009 (ip), vehicle: water
[9] = dose: 100.0 mg/kg/injection, schedule: Q01DX009 (ip), vehicle: water
[10] = dose: 100.0 mg/kg/injection, schedule: Q04DX003 (ip), vehicle: water
[11] = dose: 200.0 mg/kg/injection, schedule: Q04DX003 (ip), vehicle: water
[12] = dose: 100.0 mg/kg/injection, schedule: Q04DX003 (ip), vehicle: saline

Q: Which results are given for `CN(C)c1nc(N(C)C)nc(N(C)C)n1`?
A: T/C (dose: 18.8 mg/kg/injection, schedule: Q01DX010 (ip), vehicle: saline): 100 % of control; T/C (dose: 20.0 mg/kg/injection, schedule: Q01DX009 (ip), vehicle: Klucel (hydroxypropylcellulose) (HPC)): 95 % of control; T/C (dose: 20.0 mg/kg/injection, schedule: Q01DX009 (ip), vehicle: saline with Tween-80): 104 % of control; T/C (dose: 25.0 mg/kg/injection, schedule: Q01DX001 (ip), vehicle: Klucel (hydroxypropylcellulose) (HPC)): 100 % of control; T/C (dose: 25.0 mg/kg/injection, schedule: Q04DX002 (ip), vehicle: Klucel (hydroxypropylcellulose) (HPC)): 101 % of control and 107 % of control; T/C (dose: 25.0 mg/kg/injection, schedule: Q04DX003 (ip), vehicle: Klucel (hydroxypropylcellulose) (HPC)): 96 % of control and 100 % of control; T/C (dose: 37.5 mg/kg/injection, schedule: Q01DX010 (ip), vehicle: saline): 100 % of control and 110 % of control; T/C (dose: 40.0 mg/kg/injection, schedule: Q01DX009 (ip), vehicle: Klucel (hydroxypropylcellulose) (HPC)): 100 % of control; T/C (dose: 40.0 mg/kg/injection, schedule: Q01DX009 (ip), vehicle: saline with Tween-80): 113 % of control; T/C (dose: 59.0 mg/kg/injection, schedule: Q01DX009 (ip), vehicle: saline with Tween-80): 107 % of control; T/C (dose: 75.0 mg/kg/injection, schedule: Q01DX010 (ip), vehicle: saline): 100 % of control and 115 % of control; T/C (dose: 80.0 mg/kg/injection, schedule: Q01DX009 (ip), vehicle: Klucel (hydroxypropylcellulose) (HPC)): 90 % of control; T/C (dose: 80.0 mg/kg/injection, schedule: Q01DX009 (ip), vehicle: saline with Tween-80): 99 % of control; T/C (dose: 89.0 mg/kg/injection, schedule: Q01DX009 (ip), vehicle: saline with Tween-80): 107 % of control; T/C (dose: 133.0 mg/kg/injection, schedule: Q01DX009 (ip), vehicle: saline with Tween-80): 115 % of control; T/C (dose: 150.0 mg/kg/injection, schedule: Q01DX010 (ip), vehicle: saline): 100 % of control and 104 % of control; T/C (dose: 160.0 mg/kg/injection, schedule: Q01DX009 (ip), vehicle: Klucel (hydroxypropylcellulose) (HPC)): 104 % of control; T/C [1]: 107 % of control

Q: How did the T/C (dose: 44.0 mg/kg/injection, schedule: Q01DX009 (ip), vehicle: saline with Tween-80) turn out when `CCCC(=O)Oc1ccc(/C=N/NC(N)=S)nc1` was run?
A: 172 % of control

Q: And the T/C (dose: 50.0 mg/kg/injection, schedule: Q01DX009 (ip), vehicle: saline with Tween-80)?
A: 173 % of control

Q: What about the T/C (dose: 66.0 mg/kg/injection, schedule: Q01DX009 (ip), vehicle: saline with Tween-80) of the same compound?
A: 183 % of control

Q: And the T/C (dose: 100.0 mg/kg/injection, schedule: Q01DX009 (ip), vehicle: saline with Tween-80)?
A: 201 % of control and 211 % of control

Q: And the T/C (dose: 150.0 mg/kg/injection, schedule: Q01DX009 (ip), vehicle: saline with Tween-80)?
A: 227 % of control

Q: And the T/C [1]?
A: 115 % of control

Q: With `CC(C)C1(C(=O)NN)OC2(O)CCCCCN2C1=O` (configuration not stated) as the compound, how does the T/C [2] read?
A: 90 % of control

Q: And the T/C [3]?
A: 90 % of control

Q: What about the T/C [4] of the same compound?
A: 100 % of control

Q: How did the T/C (dose: 100.0 mg/kg/injection, schedule: Q01DX001 (ip), vehicle: Klucel (hydroxypropylcellulose) (HPC)) turn out when `Cc1nc(N)c([N+](=O)[O-])cc1[N+](=O)[O-]` was run?
A: 87 % of control

Q: `Cc1ncc([N+](=O)[O-])n1CCSSCCn1c([N+](=O)[O-])cnc1C` was tested. Which T/C (dose: 100.0 mg/kg/injection, schedule: Q04DX003 (ip), vehicle: saline with Tween-80) did it give?
A: 118 % of control

Q: What about the T/C (dose: 200.0 mg/kg/injection, schedule: Q04DX003 (ip), vehicle: saline with Tween-80) of the same compound?
A: 118 % of control

Q: What about the T/C (dose: 400.0 mg/kg/injection, schedule: Q04DX003 (ip), vehicle: saline with Tween-80) of the same compound?
A: 115 % of control

Q: `Cc1ccc(NC(=O)C(C)(C)C)c(C(O)(C(F)(F)F)C(F)(F)F)c1` was tested. Which T/C [5] did it give?
A: 99 % of control

Q: What about the T/C [6] of the same compound?
A: 106 % of control

Q: What about the T/C [7] of the same compound?
A: 99 % of control

Q: `CCN(CC)CCCNC(C)CCCN(CC)CC` (configuration not stated) was tested. Which T/C [8] did it give?
A: 103 % of control

Q: What about the T/C [9] of the same compound?
A: 98 % of control

Q: And the T/C [10]?
A: 102 % of control

Q: And the T/C [11]?
A: 100 % of control

Q: `COc1cccc2c1C(=O)c1c(O)c3c(c(O)c1C2=O)CC(O)(C(C)=O)CC3O` (configuration not stated) was tested. Which T/C (dose: 1.25 mg/kg/injection, schedule: Q01DX001 (ip), vehicle: saline) did it give?
A: 95 % of control and 104 % of control

Q: What about the T/C (dose: 2.5 mg/kg/injection, schedule: Q01DX001 (ip), vehicle: saline) of the same compound?
A: 100 % of control and 110 % of control

Q: What about the T/C (dose: 5.0 mg/kg/injection, schedule: Q01DX001 (ip), vehicle: saline) of the same compound?
A: 100 % of control

Q: What about the T/C (dose: 10.0 mg/kg/injection, schedule: Q01DX001 (ip), vehicle: saline) of the same compound?
A: 100 % of control and 109 % of control

Q: Which T/C (dose: 12.5 mg/kg/injection, schedule: Q01DX009 (ip), vehicle: saline) does the source give for `C=CCOCC1CO1` (configuration not stated) here?
A: 99 % of control

Q: What about the T/C (dose: 25.0 mg/kg/injection, schedule: Q01DX009 (ip), vehicle: saline) of the same compound?
A: 106 % of control

Q: What about the T/C (dose: 50.0 mg/kg/injection, schedule: Q01DX009 (ip), vehicle: saline) of the same compound?
A: 100 % of control

Q: What about the T/C [2] of the same compound?
A: 109 % of control

Q: What about the T/C [3] of the same compound?
A: 117 % of control

Q: What does the source list for `NC(=O)c1ncccc1C(=O)O`?
A: T/C [5]: 103 % of control; T/C [6]: 100 % of control; T/C [7]: 96 % of control

Q: What does the source list for `COC1=C2CCCCC2=[N+]2CCc3ccccc3C2C1` (configuration not stated)?
A: T/C (dose: 25.0 mg/kg/injection, schedule: Q01DX001 (ip), vehicle: saline sonified): 100 % of control; T/C (dose: 50.0 mg/kg/injection, schedule: Q01DX001 (ip), vehicle: saline sonified): 95 % of control; T/C (dose: 100.0 mg/kg/injection, schedule: Q01DX001 (ip), vehicle: saline sonified): 95 % of control

Q: Which results are given for `COc1ccc2cc1Oc1ccc(cc1)C[C@H]1c3cc(c(OC)cc3CCN1C)Oc1c(OC)c(OC)cc3c1[C@H](C2)N(C)CC3`?
A: T/C (dose: 12.5 mg/kg/injection, schedule: Q04DX003 (ip), vehicle: saline): 105 % of control; T/C (dose: 25.0 mg/kg/injection, schedule: Q04DX003 (ip), vehicle: saline): 90 % of control; T/C (dose: 50.0 mg/kg/injection, schedule: Q04DX003 (ip), vehicle: saline): 110 % of control; T/C [12]: 110 % of control

Q: With `C=CC(=O)O` as the compound, how does the T/C (dose: 0.2 mg/kg/injection, schedule: Q01DX001 (ip), vehicle: Klucel (hydroxypropylcellulose) (HPC)) read?
A: 95 % of control

Q: And the T/C (dose: 0.41 mg/kg/injection, schedule: Q01DX001 (ip), vehicle: Klucel (hydroxypropylcellulose) (HPC))?
A: 100 % of control

Q: And the T/C (dose: 0.82 mg/kg/injection, schedule: Q01DX001 (ip), vehicle: Klucel (hydroxypropylcellulose) (HPC))?
A: 104 % of control

Q: And the T/C (dose: 1.15 mg/kg/injection, schedule: Q04DX003 (ip), vehicle: Klucel (hydroxypropylcellulose) (HPC))?
A: 109 % of control

Q: What about the T/C (dose: 1.65 mg/kg/injection, schedule: Q01DX001 (ip), vehicle: Klucel (hydroxypropylcellulose) (HPC)) of the same compound?
A: 115 % of control

Q: What about the T/C (dose: 2.3 mg/kg/injection, schedule: Q04DX003 (ip), vehicle: Klucel (hydroxypropylcellulose) (HPC)) of the same compound?
A: 100 % of control

Q: What about the T/C (dose: 3.0 mg/kg/injection, schedule: Q01DX009 (ip), vehicle: saline) of the same compound?
A: 100 % of control

Q: And the T/C (dose: 3.0 mg/kg/injection, schedule: Q04DX003 (ip), vehicle: saline sonified)?
A: 109 % of control

Q: What about the T/C (dose: 4.0 mg/kg/injection, schedule: Q04DX003 (ip), vehicle: saline) of the same compound?
A: 116 % of control

Q: What about the T/C (dose: 4.6 mg/kg/injection, schedule: Q04DX003 (ip), vehicle: Klucel (hydroxypropylcellulose) (HPC)) of the same compound?
A: 100 % of control

Q: What about the T/C (dose: 6.0 mg/kg/injection, schedule: Q01DX009 (ip), vehicle: saline) of the same compound?
A: 100 % of control

Q: And the T/C (dose: 6.0 mg/kg/injection, schedule: Q04DX003 (ip), vehicle: saline sonified)?
A: 172 % of control

Q: What about the T/C (dose: 6.6 mg/kg/injection, schedule: Q04DX003 (ip), vehicle: Klucel (hydroxypropylcellulose) (HPC)) of the same compound?
A: 109 % of control

Q: And the T/C (dose: 8.0 mg/kg/injection, schedule: Q04DX003 (ip), vehicle: saline)?
A: 122 % of control

Q: And the T/C (dose: 12.0 mg/kg/injection, schedule: Q04DX003 (ip), vehicle: saline)?
A: 122 % of control

Q: And the T/C (dose: 18.0 mg/kg/injection, schedule: Q04DX003 (ip), vehicle: saline)?
A: 122 % of control

Q: Which results are given for `NCC(=O)O`?
A: T/C [2]: 95 % of control; T/C [12]: 100 % of control; T/C [3]: 104 % of control; T/C (dose: 200.0 mg/kg/injection, schedule: Q04DX003 (ip), vehicle: saline): 95 % of control; T/C [4]: 95 % of control; T/C (dose: 400.0 mg/kg/injection, schedule: Q04DX003 (ip), vehicle: saline): 95 % of control

Q: With `Clc1ccc(-c2cc(=[N+]3CCOCC3)ss2)cc1` as the compound, how does the T/C (dose: 12.5 mg/kg/injection, schedule: Q01DX009 (ip), vehicle: water) read?
A: 118 % of control

Q: What about the T/C (dose: 25.0 mg/kg/injection, schedule: Q01DX009 (ip), vehicle: water) of the same compound?
A: 102 % of control

Q: And the T/C (dose: 25.0 mg/kg/injection, schedule: Q04DX003 (ip), vehicle: water)?
A: 94 % of control

Q: What about the T/C [8] of the same compound?
A: 111 % of control

Q: And the T/C (dose: 50.0 mg/kg/injection, schedule: Q04DX003 (ip), vehicle: water)?
A: 100 % of control

Q: What about the T/C [9] of the same compound?
A: 111 % of control

Q: And the T/C [10]?
A: 90 % of control

Q: What about the T/C [11] of the same compound?
A: 110 % of control
